Where two headings read alike, the source gives them in different places.
Key:
[1] = minimum temperature for forming a kinetically stable 50% by weight solution, cooled 30° C./h to precipitation, reheated 1° C./h until clear, higher Tsol = lower solubility
Experimental: In each case, the solubility was calculated to refer to pure MGDA, without hydrate water. The solubility of inventive mixtures and of comparison experiments was determined with an apparatus that allowed heating and cooling down liquid solutions. […] Then, the slurry of crystals of MGDA so obtained was again heated at a speed of 1° C./h until a clear solution was obtained. The slurry/solution was checked for solid particles by visible light scattering detection. […] A higher temperature Tsol correlates with a lower solubility at ambient temperature.

[2] = ambient temperature
Experimental: The following tolerance tests were performed: 25 g of a 40% by weight aqueous solution of the respective inventive mixture (or of racemic MGDA) were mixed under one hour of stirring with the amount of solid NaOH beads according to table 5. The mixture so obtained was stored at ambient temperature over the period of up to 96 hours. Then, the appearance was characterized by visual inspection.

[3] = aqueous solution, room temperature; cited from earlier work
[4] = NaOH added 0 g to 25 g of 40% by weight aqueous solution
[5] = NaOH added 0.5 g to 25 g of 40% by weight aqueous solution
[6] = NaOH added 1.0 g to 25 g of 40% by weight aqueous solution
[7] = NaOH added 1.5 g to 25 g of 40% by weight aqueous solution, * = after 48 hours
[8] = NaOH added 2.0 g to 25 g of 40% by weight aqueous solution, * = after 48 hours
[9] = NaOH added 2.5 g to 25 g of 40% by weight aqueous solution, ** = immediately after addition of NaOH

Structure (SMILES)	Appearance of test solutions after 96 h of storage [2, 4]	Appearance of test solutions after 96 h of storage [2, 5]	Appearance of test solutions after 96 h of storage [2, 6]	Appearance of test solutions after 96 h of storage [2, 7]	Appearance of test solutions after 96 h of storage [2, 8]	Appearance of test solutions after 96 h of storage [2, 9]	other results
CC(C(=O)[O-])N(CC(=O)[O-])CC(=O)[O-].[Na+].[Na+].[Na+] (stereo not shown) [ee value 10.1, methyl glycine diacetic acid (MGDA)]	–	–	–	–	–	–	Tsol ([1]; listed as 10.1): 74.5 °C
CC(C(=O)[O-])N(CC(=O)[O-])CC(=O)[O-].[Na+].[Na+].[Na+] (stereo not shown) [ee value 97.7, methyl glycine diacetic acid (MGDA), reference compound]	–	–	–	–	–	–	Tsol ([1]; listed as 97.7): 37.0 °C
CC(C(=O)[O-])N(CC(=O)[O-])CC(=O)[O-].[Na+].[Na+].[Na+] (stereo not shown) [ee value 70.0, methyl glycine diacetic acid (MGDA)]	–	–	–	–	–	–	Tsol ([1]; listed as 70.0): 59.5 °C
CC(C(=O)[O-])N(CC(=O)[O-])CC(=O)[O-].[Na+].[Na+].[Na+] (stereo not shown) [ee value 20.0, methyl glycine diacetic acid (MGDA)]	–	–	–	–	–	–	Tsol ([1]; listed as 20.0): 74.0 °C
CC(C(=O)[O-])N(CC(=O)[O-])CC(=O)[O-].[Na+].[Na+].[Na+] (racemic) [Racemic MGDA, methyl glycine diacetic acid (MGDA), reference compound]	clear liquid	clear liquid	clear liquid	turbid* liquid	turbid* liquid	turbid, precipitate**	Tsol ([1]; listed as zero): 103.8 °C; concentration of solution that can be made and stored [3]: about 40 % by weight
CC(C(=O)[O-])N(CC(=O)[O-])CC(=O)[O-].[Na+].[Na+].[Na+] (stereo not shown) [MGDA: 50% ee, methyl glycine diacetic acid (MGDA)]	clear liquid	clear liquid	clear liquid	clear liquid	clear liquid	clear liquid	Tsol ([1]; listed as 50.0): 68.1 °C
